Measurements from patent US4550118A, “Heterocyclic compounds” (Ikeda Mohando Co., Ltd., priority 1982, dated 1985).

Experiments:
[1] = test system: acid secretion in pylorus-ligated rats; assay: Anti-secretory effect (histamine-stimulated gastric acid secretion) in pylorus-ligated rat; assay type: in vivo, male wistar rats; settings: Rattus norvegicus, sc, 3 h; 2 mg/kg s.c., 30 min before histamine 3 mg/kg s.c.; n=5; * significant at 5%, ** at 1% vs control; read-out: inhibitory effect of acid secretion (%) at 2 mg/kg s.c.
Procedure: (A) Anti-secretory Effect in Pylorus-ligated Rat
After 24 hr fasting, male wistar rats weighing about 160 g were anesthetized by intraperitoreal injection of urethans 1.2 g/kg. Then, after ligating the pylorus and the esophagus, the proventriculus was incised and a double polyethylene cannula was inserted. The gastric wall was washed out with 5 ml of physiological saline every 30 minutes and the amount of acid contained in the saline after washing was measured by titration. After measuring the basal acid secretion of the pylorus ligated rats three times, the compounds of the invention, 2 mg/kg, were administered subcutaneously and, 30 minutes thereafter, histamine 3 mg/kg, was administered also subcutaneously. Then, the amounts of acid secretion were measured for 3 hours. […] Then, an inhibition rate was calculated in accordance with the following formula, in relation to the increment values measured for the control group. [formula]
One group included five examples.

[2] = biological target: T1, histamine H2 receptor in atria (Cavia porcellus, UniProt P47747); assay: Histamine H2 receptor inhibition effect by isolated guinea pig right atrium preparation (negative chronotropic effect); assay type: cell-based, Male Hartley Guinea Pig; settings: 5×10^-6 mol sample 3 minutes prior to histamine, mean of five; for Kb: read-out: inhibitory effect of histamine H2 receptor in atria (pA2 value) (converted)
T1 construct: right atrium was isolated; from tissue; host or cells: isolated right atrium of male Hartley guinea pig
Procedure: (B) Measurement of Histamine H2 Receptor Inhibition Effect by Isolated Guinea Pig Right Atrium Preparation
Male Hartley Guinea Pig weighing around 400 g was sacrified by decapitation, and right atrium was isolated. The right atrium was suspended in an organ bath (50 ml) containing modified Ringer solution. Under application of a tensile load of 1 g, the heart rate was recorded by means of a polygraph. Histamine was applied cumulatively from 1×10^-7 mol to 3×10^-4 mol and a cumulative dosage response curve was drawn. Then, 5×10^-6 mol of the sample was administered 3 minutes prios to histamine application. The negative logarithmic value (pA2) of the specimen molarity required for shifting the curve to the right to double concentration was calculated.

T1 sequence (P47747 whole entry): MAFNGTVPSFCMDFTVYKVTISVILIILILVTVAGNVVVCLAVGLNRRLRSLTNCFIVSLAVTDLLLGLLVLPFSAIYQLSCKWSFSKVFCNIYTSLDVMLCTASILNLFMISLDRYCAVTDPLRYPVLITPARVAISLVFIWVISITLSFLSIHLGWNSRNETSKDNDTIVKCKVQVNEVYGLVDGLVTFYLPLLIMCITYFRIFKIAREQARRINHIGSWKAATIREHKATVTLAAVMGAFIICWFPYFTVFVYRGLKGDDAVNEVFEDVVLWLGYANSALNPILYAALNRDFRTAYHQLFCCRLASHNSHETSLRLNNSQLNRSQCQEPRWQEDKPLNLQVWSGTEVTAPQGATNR

| SMILES | Kb [2] [µM] | inhibitory effect of histamine H2 receptor in atria (pA2 value) [2] | inhibition in vivo at 2 mg/kg [1] [%] |
| --- | --- | --- | --- |
| O=c1[nH]c(NCCCOc2ccc3[nH]c(CN4CCCCC4)nc3c2)ncc1Cc1ccc2c(c1)OCO2 [Example 64, 5-[5-(1,3-benzodioxolyl)methyl]-2-[3-<5-(2-(1-piperidinomethyl)benzimidazolyl)oxy>propylamino]-4-pyrimidone] | 5.89 | – | 76 |
| CN(C)Cc1cnc(NCCCOc2ccc3[nH]c(CN4CCCCC4)nc3c2)[nH]c1=O [Example 61, 5-dimethylaminomethyl-2-[3-<5-(2-(1-piperidinomethyl)benzimidazolyl)oxy>propylamino]-4-pyrimidone] | 3.09 | – | 64 |
| O=c1[nH]c(NCCCOc2ccc3[nH]c(CN4CCCCC4)nc3c2)ncc1Cc1cccnc1 [Example 68, 2-{3-[5-<2-(1-piperidinomethyl)benzimidazolyl>oxy]propylamino}-5-(3-pyridylmethyl)-4-pyrimidone] | 9.55 | – | 90 |
| O=c1ccnc(NCCCOc2ccc3[nH]c(CN4CCCCC4)nc3c2)[nH]1 [Example 59, 2-[3-<5-(2-(1-piperidinomethyl)benzimidazolyl)oxy>propylamino]-4-pyrimidone] | 0.891 | – | 74 |
| O=c1[nH]c(NCCCOc2ccc3[nH]c(CN4CCCC4)nc3c2)ncc1Cc1cccnc1 [Example 67, 2-{3-[5-<2-(1-pyrrolidinomethyl)benzimidazolyl>oxy]propylamino}-5-(3-pyridylmethyl)-4-pyrimidone] | 4.68 | – | 93 |
| Nc1n[s+]([O-])nc1NCCCOc1ccc2[nH]c(CN3CCCCC3)nc2c1 (centres unmarked) [Example 101] | 2.95 | – | 97 |
| Nc1n[s+]([O-])nc1NCCSCc1ccc2[nH]c(CN3CCCCC3)nc2c1 (centres unmarked) [Example 105, 3-{2-[5-<2-(1-piperidinomethyl)benzimidazolyl>methylthio]ethyl}amino-4-amino-1,2,5-thiadiazole-1-oxide] | – | 6.08 | 92 |
| CN(C)Cc1nc2cc(OCCCNc3nnc(Cc4cccnc4)c(=O)[nH]3)ccc2[nH]1 [Example 83, 3-[3-<5-(2-dimethylaminomethylbenzimidazolyl)oxy>propylamino]-6-(3-pyridylmethyl)-1,2,4-triazine-5-one] | 4.07 | – | 78 |
| O=c1[nH]c(NCCCOc2ccc3[nH]c(CN4CCCCC4)nc3c2)nnc1Cc1cccnc1 [Example 85, 3-{3-[5-<2-(1-piperidinomethyl)benzimidazolyl>oxy]propylamino}-6-(3-pyridylmethyl)-1,2,4-triazine-5-one] | 1.95 | – | 46 |
| CN(C)Cc1nc2cc(OCCCNc3nc(N)nn3C)ccc2[nH]1 [Example 91, 1-methyl-5-[3-<5-(2-dimethylaminomethylbenzimidazolyl)oxy>propyl]-1H-1,2,4-triazole-3,5-diamine] | 6.46 | – | 81 |
| CNC(=NC#N)NCCCOc1ccc2[nH]c(CN3CCCC3)nc2c1 [Example 3] | 1.17 | – | 54 |
| CCNc1n[s+]([O-])nc1NCCCSc1ccc2[nH]c(NC(=N)N)nc2c1 (centres unmarked) [Example 113, 3-N-[3-<5-(2-guanidinobenzimidazolyl)thio>propyl]amino-4-ethylamino-1,2,5-thiadiazole-1-oxide] | 8.51 | – | 63 |
| O=c1[nH]c(NCCCOc2ccc3[nH]c(CN4CCCC4)nc3c2)ncc1Cc1ccc2c(c1)OCO2 [Example 63, 5-[5-(1,3-benzodioxolyl)methyl]-2-[3-<5-(2-(1-pyrrolidinomethyl)benzimidazolyl)oxy>propylamino]-4-pyrimidone] | 4.07 | – | 78 |

Further lines, with some results ahead:

| Kb [2] [µM] | inhibitory effect of histamine H2 receptor in atria (pA2 value) [2] | SMILES | inhibition in vivo at 2 mg/kg [1] [%] |
| --- | --- | --- | --- |
| 0.562 | – | CN(C)Cc1nc2cc(CSCCC(N)=NS(N)(=O)=O)ccc2[nH]1 [Example 121, N-sulfamoyl-3-[5-(2-dimethylaminomethylbenzimidazolyl)methylthio]propionamidine] | 76 |
| 1.45 | – | CNC(=C[N+](=O)[O-])NCCSCc1ccc2[nH]c(CN(C)C)nc2c1 [Example 42, 1-nitro-2-methylamino-2-[2-<5-(2-dimethylaminomethylbenzimidazolyl)methylthio>ethylamino]ethylene] | 93 |
| 1.45 | – | CCNc1n[s+]([O-])nc1NCCSCc1ccc2[nH]c(CN(C)C)nc2c1 (centres unmarked) [Example 108, 3-[2-<5-(2-dimethylaminomethylbenzimidazolyl)methylthio>ethyl]amino-4-ethylamino-1,2,5-thiadiazole-1-oxide] | 77 |
| 2.19 | – | CCNc1n[s+]([O-])nc1NCCCOc1ccc2[nH]c(CN(C)C)nc2c1 (centres unmarked) [Example 102, 3-[3-<5-(2-dimethylaminomethylbensimidazolyl)oxi>propyl]amino-4-ethylamino-1,2,5-thiadiazol-1-oxide] | 68 |
| 1.38 | – | CNC(=C[N+](=O)[O-])NCCCCOc1ccc2[nH]c(CN3CCCCC3)nc2c1 [Example 30, 1-nitro-2-methylamino-2-{4-[5-<2-(1-piperidinomethyl)benzimidazolyl>oxy]butylamino}ethylene] | 78 |
| 1.66 | – | CNC(=NC#N)NCCCSCc1ccc2[nH]c(CN(C)C)nc2c1 [Example 37, N-cyano-N'-methyl-N"-[3-<5-(2-dimethylaminomethylbenzimidazolyl)methylthio>propyl]guanidine] | 38 |
| 0.933 | – | CN(C)Cc1nc2cc(CSCCNc3nc(N)n[nH]3)ccc2[nH]1 [Example 96, 5-[2-<5-(2-dimethylaminomethylbenzimidazolyl)methylthio>ethyl]-1H-1,2,4-triazole-3,5-diamine] | – |
| 2.45 | – | CN(C)Cc1nc2cc(CSCCCC(N)=NS(N)(=O)=O)ccc2[nH]1 [Example 122, N-sulfamoyl-4-[5-(2-dimethylaminomethylbenzimidazolyl)methylthio]butyroamidine] | 32 |
| 0.537 | – | CNc1n[s+]([O-])nc1NCCSCc1ccc2[nH]c(CN(C)C)nc2c1 (centres unmarked) [Example 106, 3-[2-<5-(2-dimethylaminomethylbenzimidazolyl)methylthio>ethyl]amino-4-methylamino-1,2,5-thiadiazole-1-oxide] | 89 |
| 5.5 | – | CN(C)Cc1nc2cc(OCCCCNc3nc(N)nn3C)ccc2[nH]1 [Example 92, 1-methyl-5-[4-<5-(2-dimethylaminomethylbenzimidazolyl)oxy>butyl]-1H-1,2,4-triazole-3,5-diamine] | 92 |
| 0.759 | – | C#CCNc1n[s+]([O-])nc1NCCSCc1ccc2[nH]c(CN(C)C)nc2c1 (centres unmarked) [Example 109, 3-[2-<5-(2-dimethylaminomethylbenzimidazolyl)methylthio>ethyl]amino-4-(2-propinylamino)-1,2,5-thiadiazole-1-oxide] | 74 |
| 0.631 | – | C#CCNC(=C[N+](=O)[O-])NCCSCc1ccc2[nH]c(CN(C)C)nc2c1 [Example 44, 1-nitro-2-propargylamino-2-[2-<5-(2-dimethylaminomethylbenzimidazolyl)methylthio>ethylamino]ethylene] | 57 |
| 3.55 | – | CN(C)Cc1nc2cc(OCCCNc3ncc(CN(C)C)c(=O)[nH]3)ccc2[nH]1 [Example 60, 5-dimethylaminomethyl-[3-<5-(2-dimethylaminomethylbenzimidazolyl)oxy>propylamino]-4-pyrimidone] | 56 |
| 0.631 | – | CN(C)Cc1nc2cc(CSCCNc3ncc(CN(C)C)c(=O)[nH]3)ccc2[nH]1 [Example 73, 2-[2-<5-(2-dimethylaminomethylbenzimidazolyl)methylthio>ethylamino]-5-dimethylaminomethyl-4-pyrimidone] | 91 |
| 0.832 | – | CN(C)Cc1nc2cc(CSCCNC(N)=NC#N)ccc2[nH]1 [Example 34, N-cyano-N'-[2-<5-(2-dimethylaminomethylbenzimidazolyl)methylthio>ethyl]guanidine] | 52 |
| 1.17 | – | CN(C)Cc1nc2cc(CSCCNC(N)=NS(=O)(=O)c3ccccc3)ccc2[nH]1 [Example 46, N-benzenesulfonyl-N'-[2-<5-(2-dimethylaminomethylbenzimidazolyl)methylthio>ethyl]guanidine] | 72 |
| 1.23 | – | CN(C)Cc1nc2cc(CSCCNc3ncc(Cc4cccnc4)c(=O)[nH]3)ccc2[nH]1 [Example 76, 2-[2-<5-(2-dimethylaminomethylbenzimidazolyl)methylthio>ethylamino]-5-(3-pyridylmethyl)-4-pyrimidone] | 102 |
